Values quoted from earlier work, collected in patent US6509030B2, “Cultured fish carotenoid and polyphenol added feed for improving fish body color tone and fish meat brilliance” (Toshiyuki Sakiura, priority 2000, dated 2003).

CC1=C(/C=C/C(C)=C/C=C/C(C)=C/C=C/C=C(C)/C=C/C=C(C)/C=C/C2=C(C)C(=O)[C@@H](O)CC2(C)C)C(C)(C)C[C@H](O)C1=O [Asthaxanthine, asthaxanthine]
chemical stability, acidic (acidic): very unstable
chemical stability, basic (basic): Unstable
chemical stability, neutral (neutral): Unstable
